Experimental data from PubChem BioAssay (NCI).
“And” between values parts separate entries of the source, which are not always exact repeats. Equal values may be shown once.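 Assay format: 96-well plates, 48-hour exposure. Here, GI50 denotes the concentration required for 50% inhibition of growth. TGI: total growth inhibition.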

Columns and labels:
Experiment in all cases: NCI tumour cell line growth inhibition, 48 h
MALME-3M melanoma = system: MALME-3M melanoma
SF-539 CNS = system: SF-539 CNS
HCT-15 colon = system: HCT-15 colon
CAKI-1 renal = system: CAKI-1 renal
K-562 leukemia = system: K-562 leukemia
MCF7 breast = system: MCF7 breast
ACHN renal = system: ACHN renal
DU-145 prostate = system: DU-145 prostate
SNB-19 CNS = system: SNB-19 CNS
SK-MEL-2 melanoma = system: SK-MEL-2 melanoma

SMILES	GI50 (MALME-3M melanoma)	TGI (MALME-3M melanoma)	GI50 (SF-539 CNS)	TGI (SF-539 CNS)	GI50 (HCT-15 colon)	TGI (HCT-15 colon)	GI50 (CAKI-1 renal)	TGI (CAKI-1 renal)	GI50 (K-562 leukemia)	TGI (K-562 leukemia)	GI50 (MCF7 breast)	TGI (MCF7 breast)	GI50 (ACHN renal)	TGI (ACHN renal)	GI50 (DU-145 prostate)	TGI (DU-145 prostate)	GI50 (SNB-19 CNS)	TGI (SNB-19 CNS)	GI50 (SK-MEL-2 melanoma)	TGI (SK-MEL-2 melanoma)
Cc1cn2c(/C=C3\C(=O)Nc4ccc(O)cc43)c(-c3ccc(Cl)cc3)nc2s1	14.3 µM	42 µM	17.5 µM	33.9 µM	21.4 µM	> 100 µM	33.4 µM	72.8 µM	10.4 µM	40.9 µM	14.2 µM	33.8 µM	17.8 µM	> 100 µM	10.3 µM	25.2 µM	15.2 µM	39.1 µM	21.9 µM	70.5 µM
Oc1cc(O)c2c(c1)OC(c1ccc(O)c(O)c1)C(OC1(c3cc(O)c(O)c(O)c3)Oc3cc(O)cc(O)c3C(O)C1O)C2 (configuration not stated)	–	> 100 µM	–	> 74.9 µM	–	> 100 µM	–	81.1 µM	–	43.6 µM	–	40.2 µM	–	> 100 µM	–	> 75.5 µM	–	> 100 µM	–	> 69.9 µM
O=c1c2ccccc2sc2cccc(NCCCN3CCN(CCCNc4cccc5sc6ccccc6c(=O)c45)CC3)c12	–	> 100 µM	–	> 100 µM	–	> 100 µM	–	> 100 µM	–	> 100 µM	–	> 100 µM	–	> 100 µM	–	> 100 µM	–	> 100 µM	–	> 100 µM
O=C(CC(O)(C(F)(F)F)C(F)(F)F)c1cc(CC(=O)C(O)(C(F)(F)F)C(F)(F)F)cc(CC(=O)C(O)(C(F)(F)F)C(F)(F)F)c1	–	6.33 µM	–	4.9 µM	–	> 8.79 µM	–	5.34 µM	–	> 10 µM	–	9.82 µM	–	> 6.02 µM	–	> 10 µM	–	> 10 µM	–	3.71 µM
COc1cccc2c1C(=O)c1c(O)c3c(c(O)c1C2=O)CC(O)(/C(C)=N/NC(=O)CCC(=O)N/N=C(\C)C1(O)Cc2c(O)c4c(c(O)c2C(OC2CC(N)C(O)C(C)O2)C1)C(=O)c1c(OC)cccc1C4=O)CC3OC1CC(N)C(O)C(C)O1 (configuration not stated)	0.285 µM	1.12 µM	0.179 µM	0.859 µM	3.51 µM	> 50 µM	0.895 µM	17.7 µM	0.341 µM	7.69 µM	0.0676 µM	7.41 µM	0.277 µM	2.9 µM	0.302 µM	2.97 µM	0.198 µM	1.38 µM	0.111 µM	0.343 µM
Cc1nc2ccccc2nc1-c1ccc(N=[N+]([O-])c2ccc(-c3nc4ccccc4nc3C)cc2)cc1	–	> 100 µM	–	> 100 µM	–	> 100 µM	–	> 100 µM	–	> 100 µM	–	> 100 µM	–	> 100 µM	–	> 100 µM	–	> 100 µM	–	> 100 µM
Nc1nccc2c1ccn2-c1ccc(NC(=O)c2ccc(N3CCOCC3)c(C(F)(F)F)c2)cc1	1.58 µM	6.71 µM	0.491 µM	5.96 µM	0.811 µM	10.5 µM	0.484 µM	3.45 µM	0.687 µM	> 100 µM	0.316 µM	1.41 µM	0.928 µM	16.3 µM	2.66 µM	20.5 µM	0.61 µM	8.13 µM	1.11 µM	5.49 µM
Cn1cnc([N+](=O)[O-])c1S(=O)(=O)Oc1ccccc1	2.14 µM	4.32 µM	14 µM	29.8 µM	2.74 µM	> 28.4 µM	1.66 µM	3.41 µM	2.52 µM	15.5 µM	7.82 µM	> 44.3 µM	1.8 µM	3.37 µM	5.6 µM	17 µM	> 100 µM	> 100 µM	15.5 µM	40.9 µM
O=c1cc2oc3cc(O)c(O)cc3c(-c3ccccc3O)c-2cc1O	53 µM	> 100 µM	6.16 µM	> 100 µM	38.3 µM	> 100 µM	3.04 µM	11.1 µM	5.76 µM	> 100 µM	18.4 µM	> 100 µM	4.13 µM	> 100 µM	22.8 µM	> 100 µM	9.65 µM	> 100 µM	36.8 µM	> 100 µM
NS(=O)(=O)c1ccc(N(/C=C/C(=O)C(F)(F)F)CC(=O)c2ccc(Cl)cc2)cc1	24.9 µM	92.6 µM	43.4 µM	> 100 µM	35.5 µM	> 100 µM	24.4 µM	66 µM	33.5 µM	93.6 µM	15.8 µM	49.7 µM	30.4 µM	91.4 µM	93.3 µM	> 100 µM	51.2 µM	> 100 µM	38.1 µM	> 100 µM
C[C@H]1Oc2cc(cnc2N)-c2c(nn(C)c2C#N)CN(C)C(=O)c2ccc(F)cc21	18.8 µM	> 100 µM	59.5 µM	> 100 µM	47 µM	> 100 µM	18.3 µM	> 100 µM	> 100 µM	> 100 µM	5.42 µM	> 100 µM	22.8 µM	> 100 µM	26.6 µM	> 100 µM	> 100 µM	> 100 µM	78 µM	> 100 µM
O=C(c1ccc(Cl)cc1)c1cnc(Nc2ccccc2Cl)s1	–	46.7 µM	–	55.3 µM	–	51.6 µM	–	40 µM	–	> 100 µM	–	86.7 µM	–	35.3 µM	–	48.7 µM	–	51.3 µM	–	30.7 µM
CCCn1c(N)c(C(=O)N/N=C(/C)c2cc3cccc(OC)c3o2)sc1=S	74 µM	> 100 µM	17.1 µM	90.7 µM	22.1 µM	> 100 µM	0.0161 µM	> 100 µM	18.3 µM	> 100 µM	28 µM	> 100 µM	46.8 µM	> 100 µM	26.4 µM	> 100 µM	30.2 µM	> 100 µM	53.3 µM	> 100 µM
O=C(c1c(F)ccc(NS(=O)(=O)N2CC[C@@H](F)C2)c1F)c1c[nH]c2ncc(-c3cnc(C4CC4)nc3)cc12	0.00378 µM and < 0.01 µM	< 0.043 µM	6.74 µM and 6.17 µM	> 10 µM and 23.7 µM	5.69 µM and 5.21 µM	> 10 µM and 40.6 µM	3.22 µM and 3.29 µM	> 10 µM and 29.8 µM	3.68 µM and 3.12 µM	> 100 µM	> 9.13 µM and 10.1 µM	> 10 µM and 44.5 µM	4.91 µM and 4.34 µM	> 65.9 µM	6.03 µM and 5.37 µM	> 76.8 µM	> 10 µM and 9.77 µM	> 85.4 µM	2.17 µM and 3.25 µM	> 8.34 µM and 15.7 µM
Cc1[nH]c2ccccc2c1-c1cc(-c2cc(-c3c(C)[nH]c4ccccc34)on2)no1	–	> 100 µM	–	> 100 µM	–	> 100 µM	–	> 100 µM	–	> 100 µM	–	> 100 µM	–	> 100 µM	–	> 100 µM	–	> 100 µM	–	> 100 µM
N=c1ccn2c(n1)OC1C(O)C(CO)OC12 (configuration not stated)	4.22 µM	78.5 µM and > 100 µM	31.9 µM	> 1000 µM	–	> 1000 µM	0.394 µM	260 µM and > 100 µM	81.4 µM	> 1000 µM	0.0703 µM	361 µM and > 100 µM	0.237 µM	14 µM and 3.49 µM	2.53 µM and 0.886 µM	> 1000 µM	–	> 480 µM	> 100 µM	> 1000 µM
COc1ccc(-c2oc(=O)ccc2-c2cc(OC)c(OC)c(OC)c2)cc1F	3.24 µM	> 100 µM	19.8 µM	80.3 µM	5.42 µM	> 100 µM	9.64 µM	> 100 µM	4.08 µM	> 100 µM	9.74 µM	> 100 µM	25.2 µM	> 100 µM	32 µM	> 100 µM	53.2 µM	> 100 µM	6.98 µM	> 100 µM
CC(=O)OC12c3ccccc3-c3ccccc3C1C1C(=O)N(C)C(=O)C12Cl (configuration not stated)	–	> 10 µM	–	> 10 µM	–	> 10 µM	–	> 10 µM	–	> 10 µM	–	> 10 µM	–	> 10 µM	–	> 10 µM	–	> 10 µM	–	> 10 µM
O=C(c1ccc(F)c(F)c1Nc1ccc(I)cc1F)N1CC(O)([C@@H]2CCCCN2)C1	< 0.01 µM and 0.00181 µM	0.0133 µM	3.22 µM and > 9.01 µM	18.5 µM and > 10 µM	1.22 µM and 1.92 µM	16.8 µM and > 10 µM	2.36 µM	17.9 µM and > 10 µM	0.216 µM and 0.574 µM	6.15 µM and > 10 µM	6.56 µM and > 10 µM	20.1 µM and > 10 µM	0.463 µM and 0.637 µM	15.1 µM and > 10 µM	3.32 µM and 3.18 µM	19.9 µM and > 10 µM	1.59 µM and 0.56 µM	21.1 µM and > 10 µM	< 0.013 µM and 0.0327 µM	< 0.0268 µM
CC(CC(=O)O)C(C(=O)O)C(=O)O (configuration not stated)	–	> 100 µM	–	> 100 µM	–	> 100 µM	–	> 100 µM	–	> 100 µM	–	> 100 µM	–	> 100 µM	–	> 100 µM	–	> 100 µM	–	> 100 µM
CCCCCCNC(=O)c1nc(-c2ccccc2)oc1Cc1ccc(OP(=O)(O)O)cc1	19.3 µM	37 µM	16.9 µM	32.2 µM	17.8 µM	37.2 µM	15.8 µM	33.6 µM	22.6 µM	64 µM	15.3 µM	29.9 µM	15.5 µM	29.5 µM	10.2 µM	22.3 µM	22 µM	> 100 µM	19 µM	37.1 µM
CC1=CC(=O)[C@@H](O)[C@]2(C)[C@H]3[C@@]4(O)OC[C@]35[C@H]([C@@H](C)[C@H]4O)[C@@H](O)C(=O)O[C@@H]5C[C@@H]12	–	0.445 µM	–	0.261 µM	–	2.48 µM	–	5.3 µM	–	> 100 µM	–	0.546 µM	–	5.4 µM	–	1.69 µM	–	3.69 µM	–	1.16 µM
COc1ccc(C(O)c2nccn2C)c(OC)c1 (configuration not stated)	–	> 100 µM	–	> 100 µM	–	> 100 µM	–	> 100 µM	–	> 100 µM	–	> 100 µM	–	> 100 µM	–	> 100 µM	–	> 100 µM	–	> 100 µM
CCN(CC)CCOc1ccc(/C=C2\CC3C4CC=C5C[C@@H](O)CC[C@]5(C)C4CC[C@]3(C)C2=O)cc1OC (some centres not stated)	2.01 µM	12.3 µM	3.38 µM	12.7 µM	2.27 µM	6.19 µM	4.14 µM	16.3 µM	3.09 µM	> 38.2 µM	9.6 µM	54.5 µM	1.77 µM	3.32 µM	9.51 µM	21.4 µM	4.67 µM	> 64 µM	7.27 µM	78.3 µM
CCN(CC)c1nc(-c2ccc(Cl)cc2Cl)nc2ccccc12	18.9 µM	49.7 µM	20.3 µM	41.9 µM	19.3 µM	48.9 µM	16.5 µM	62.4 µM	30.8 µM	> 100 µM	22.2 µM	> 68 µM	15.8 µM	50.4 µM	13.6 µM	> 58.9 µM	40.8 µM	> 100 µM	> 41.8 µM	> 67.7 µM
Cc1csc(Nc2nc(-c3cccc(Br)c3)nc(C(Cl)(Cl)Cl)n2)n1	> 100 µM	> 100 µM	3.09 µM	> 100 µM	4.95 µM	> 100 µM	2.41 µM	> 100 µM	> 24.9 µM	> 100 µM	1.43 µM	> 100 µM	0.475 µM	2.97 µM	0.419 µM	3.21 µM	2.87 µM	> 100 µM	> 100 µM	> 100 µM
Ic1ccc(-n2nnnc2-c2cnoc2-c2ccccc2)cc1	> 44.2 µM	> 73.6 µM	–	3.98 µM	29.1 µM	> 73.6 µM	37.9 µM	> 100 µM	29.2 µM	> 66.6 µM	35.2 µM	> 100 µM	> 61.1 µM	> 100 µM	5.99 µM	> 100 µM	> 63.1 µM	> 100 µM	> 94 µM	> 100 µM
CS(=O)(=O)CCCn1c(=O)c(Oc2ccc(F)cc2F)cc2cnc(NC3CCOCC3)nc21	> 25 µM	> 25 µM	> 25 µM	> 25 µM	> 25 µM	> 25 µM	> 25 µM	> 25 µM	> 25 µM	> 25 µM	> 25 µM	> 25 µM	> 25 µM	> 25 µM	> 25 µM	> 25 µM	> 25 µM	> 25 µM	> 25 µM	> 25 µM
